Data as given in ChEMBL document CHEMBL1133673, “Crystal structure of FMN-dependent nitroreductase from Escherichia coli B: a prodrug-activating enzyme” (J Med Chem, 2000).

Experiments:
[1] = test system: Escherichia coli B; assay: Catalytic constant determined to activate by FMN-dependent nitroreductase enzyme from Escherichia coli B (NTR)
[2] = target: NAD(P)H dehydrogenase [quinone] 1 (Homo sapiens) (UniProt P15559); assay: Catalytic constant determined to activate by DT diaphorase in human cell lines
Chain of NAD(P)H dehydrogenase [quinone] 1 (Homo sapiens) (P15559 whole entry): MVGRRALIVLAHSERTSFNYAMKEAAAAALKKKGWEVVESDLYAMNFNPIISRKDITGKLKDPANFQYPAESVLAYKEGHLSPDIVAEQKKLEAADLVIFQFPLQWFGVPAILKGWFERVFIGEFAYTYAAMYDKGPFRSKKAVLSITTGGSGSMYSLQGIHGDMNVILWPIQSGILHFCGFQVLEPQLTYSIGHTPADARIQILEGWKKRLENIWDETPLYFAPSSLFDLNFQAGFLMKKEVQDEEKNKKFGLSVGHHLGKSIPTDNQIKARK

SMILES	k cat [1]	k cat [2]
NC(=O)c1cc(N2CC2)c([N+](=O)[O-])cc1[N+](=O)[O-]	6 s⁻¹	0.0107 s⁻¹
NC(=O)c1cc(N(CCCl)CCCl)c([N+](=O)[O-])cc1[N+](=O)[O-]	26.3 s⁻¹	–
